Converted amounts (≈) assume the structure as drawn.
What was measured:
HRP [1] = biological target: T1, HRP (Armoracia rusticana, UniProt P00433); assay: IHC staining of FFPE human tissues and Her2 control cell lines, Envision+ Dual link HRP visualization, DAB as reference; set-up: species or system horse radish; settings: for IHC staining performance of Rhodamine 6G derivatives with different 4-hydroxy cinnamic acid derivatives: peroxidase substrate moiety varied; for colour of IHC stain / stain intensity and crispness compared with DAB: tested in 0.4 to 1 mM; for stain intensity and crispness compared with DAB: low and medium expression targets
T1 construct: purchased Dako K4061
T1 sequence (P00433 31-338): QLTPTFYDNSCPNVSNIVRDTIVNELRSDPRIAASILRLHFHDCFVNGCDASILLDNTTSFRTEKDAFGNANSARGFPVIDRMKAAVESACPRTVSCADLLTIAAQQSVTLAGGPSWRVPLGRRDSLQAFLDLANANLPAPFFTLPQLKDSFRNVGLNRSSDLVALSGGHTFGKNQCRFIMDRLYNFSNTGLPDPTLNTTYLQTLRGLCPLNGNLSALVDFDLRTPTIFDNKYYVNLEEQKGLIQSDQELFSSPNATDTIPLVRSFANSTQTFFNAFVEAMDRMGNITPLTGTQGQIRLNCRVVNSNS

[2] = UV-VIS absorbance maxima of chromogenic conjugates and mixtures; format: physicochemical
Protocol: “Spectrally narrow” refers to a chromogen having less that 50 nm broadness at its maximum absorbance at half peak height by UV-VIS spectroscopy, measured in +99% water at pH, 6-8 in 10 μM concentration. A “magenta chromogen” is a spectrally narrow chromogen with peak absorbance between 525 and 530 nm, measured in +99% water at pH, 6.0-8.0 in 10 μM concentration. A “greenish-yellow chromogen” is a chromogen with peak absorbance below 475 nm and less than 10% absorbance at 530 nm or above relative to the peak absorbance, measured in +99% water at pH, 6.0-8.0 in 10 μM concentration. A “yellow chromogen” is a chromogen with peak absorbance below 505 nm and less than 10% absorbance at 530 nm or above relative to the peak absorbance, measured in +99% water at pH, 6.0-8.0 in 10 μM concentration. A “cyan chromogen” is a chromogen having maximal absorbance above 615 nm and less than 10% relative absorbance at any wavelength between 530 and 400 nm relative to the peak absorbance, measured in +99% water at pH, 6.0-8.0 m 10 μM concentration. An “orange chromogen” is a “spectrally narrow” chromogen that has maximum absorbance between 495 and 520 nm, measured in +99% water at pH, 6-8 in 10 μM concentration. A “dichroic chromogen” is a chromogen that has at least two absorbance maxima, separated by a local minimum at least 50 nm wide and one further global minimum between 390 and 700 nm measured in water between pH 6 and 8.

[3] = Solubility in substrate buffer as function of percentage of NMP; format: physicochemical
Protocol: Only Compound 6 having a piperazine amide stands out by absorbing at 536 nm, around 5 nm above the esters comprising Compounds 2, 13, 14 and 15 all with abs max within 531-533 nm. […] Addition of NMP to the buffer in all cases increased chromogen solubility. See result table below of the solubility of 2, 13 and 15 as function of percentage of NMP as organic co solvent, 0% representing neat aqueous buffer 50 mM imidazole: HCl, pH 6.8, 3% and 10% said percent.

HRP [4] = biological target: T1, HRP; assay: Tissue staining with mixtures of chromogens in chromogen buffer; set-up: species or system horse radish; settings: alone
[5] = imidazole:HCl buffer (substrate buffer) with 3% NMP, aqueous buffer, 3% NMP in 50 mM imidazole:HCl pH 6.8
[6] = imidazole:HCl buffer (substrate buffer) with 10% NMP, aqueous with cosolvent or surfactant or cyclodextrin, 10% NMP in 50 mM imidazole:HCl pH 6.8
[7] = imidazole:HCl buffer (substrate buffer), 0% NMP, neat aqueous buffer 50 mM imidazole:HCl pH 6.8

Structure (SMILES) | Absp nm (max) [2] [nm] | colour of IHC stain (HRP [1]) | stain intensity and crispness compared with DAB (HRP [1]) | also measured
CC/N=c1\cc2oc3cc(NCC)c(C)cc3c(-c3ccccc3C(=O)OCC(=O)NCCOCCOCCNC(=O)/C=C/c3ccc(O)c(OC)c3)c-2cc1C [Compound 18, Rhodamine 6G-12-Fer] | 531 |  |  | IHC staining performance of Rhodamine 6G derivatives with different 4-hydroxy cinnamic acid derivatives (HRP [1]): performed acceptably
CC/N=c1\cc2oc3cc(NCC)c(C)cc3c(-c3ccccc3C(=O)OCC(=O)NCCOCCOCCNC(=O)/C=C/c3ccc(O)c(O)c3)c-2cc1C [Compound 16, Rhodamine 6G-L12-Caf] | 531 |  |  | IHC staining performance of Rhodamine 6G derivatives with different 4-hydroxy cinnamic acid derivatives (HRP [1]): performed poorly
N=c1ccc2c(-c3ccccc3C(=O)OCC(=O)NCCOCCOCCNC(=O)/C=C/c3ccc(O)cc3)c3ccc(N)cc3oc-2c1 [Compound 1, Rhodamine 110-L12-Cou] | 505 |  |  | 
CC/N=c1\cc2oc3cc(NCC)c(C)cc3c(-c3ccccc3C(=O)OCC(=O)NCCOCCOCCNC(=O)COCC(=O)NCCOCCOCCNC(=O)/C=C/c3ccc(O)cc3)c-2cc1C [Compound 15, Rho6G-L27-Cou] | 533 | deep blue stains | more than matched DAB in intensity and crispness | solubility [3, 5]: 1900 µM (≈ 1890 µg/mL); solubility [3, 6]: 6000 to 7000 µM (≈ 5970 to 6970 µg/mL); solubility [3, 7]: 1700 µM (≈ 1690 µg/mL); solubility in the substrate buffer relative to Compound 2 [3]: significantly increased solubility
CC/N=c1\cc2oc3cc(NCC)c(C)cc3c(-c3ccccc3C(=O)N3CCN(C(=O)c4ccc(-c5c6ccc(=O)cc-6oc6cc(O)ccc56)c(C(=O)O)c4)CC3)c-2cc1C [6G compound] |  |  |  | colour of the compound as chromogen [2]: orange
O=C(/C=C/c1ccc(O)cc1)NCCOCCOCCNC(=O)COC(=O)c1ccccc1-c1c2cc(Cl)c(=O)cc-2oc2cc(O)c(Cl)cc12 [Compound 11, 2,7Dichloro-Flu-L12-Cou] | 517 |  |  | 
CCN(CC)c1ccc(C(=C2C=CC(=[N+](CC)CC)C=C2)c2cc(OCC(=O)NCCOCCOCCNC(=O)/C=C/c3ccc(O)cc3)c(S(=O)(=O)O)cc2S(=O)(=O)O)cc1 [Compound 35] |  |  |  | absorbance maximum ([2]; in neutral water): 640 nm
CC/N=c1\cc2oc3cc(NCC)c(C)cc3c(-c3ccccc3C(=O)OCC(=O)NCCOCCOCCNC(=O)/C=C/c3cc(OC)c(O)c(OC)c3)c-2cc1C [Compound 19, Rhodamine 6G-L12-Sin] | 531 |  |  | IHC staining performance of Rhodamine 6G derivatives with different 4-hydroxy cinnamic acid derivatives (HRP [1]): performed poorly
CNCCNC [Compound 34A, N,N′-dimethyl ethylenediamine] |  |  |  | absorbance of Rhodamine 6G secondary amide / ester derivatives [2]: 531 nm
O=C(/C=C/c1ccc(O)cc1)NCCOCCOCCNC(=O)CN1CCN(C(=O)c2ccccc2-c2c3ccc(=O)cc-3oc3cc(O)ccc23)CC1 [Compound 12, Flu-Pip-L12-Cou] | 508 |  |  | 
CC/N=c1\cc2oc3cc(NCC)c(C)cc3c(-c3ccccc3C(=O)N3CCN(C(=O)c4ccccc4-c4c5ccc(=O)cc-5oc5cc(OCC(=O)NCCOCCOCCNC(=O)OC(C)(C)C)ccc45)CC3)c-2cc1C [Formula XIVb] |  |  |  | colour of the compound as chromogen [2]: orange-red color
CC/N=c1\cc2oc3cc(NCC)c(C)cc3c(-c3ccccc3C(=O)OCC(=O)NCCOCCOCCNC(=O)/C=C/c3ccc(O)cc3O)c-2cc1C [Compound 17, Rhodamine 6G-L12-2,4-OH-Cin] | 531 |  |  | IHC staining performance of Rhodamine 6G derivatives with different 4-hydroxy cinnamic acid derivatives (HRP [1]): strong stains but also some background
CN(C)c1ccc2c(-c3ccccc3C(=O)N3CCN(CC(=O)NCCOCCOCCNC(=O)/C=C/c4ccc(O)cc4)CC3)c3ccc(=[N+](C)C)cc-3oc2c1 [Compound 7, TM-Rhodamine-Pip-L12-Cou] | 561 |  |  | 
CN(C)c1ccc2c(-c3ccccc3C(=O)OCC(=O)NCCOCCOCCNC(=O)/C=C/c3ccc(O)cc3)c3ccc(=[N+](C)C)cc-3oc2c1 [Compound 3, TetramethylRhodamine-L12-Cou] | 556 | slightly redish purple stains | more than matched DAB in intensity and crispness | 
O=C(O)COc1ccc2c(-c3ccccc3C(=O)OCC(=O)NCCOCCOCCNC(=O)/C=C/c3ccc(O)cc3)c3ccc(=O)cc-3oc2c1 [Compound 9, (O-carboxymethyl)-Flu-L12-Cou] | 458 | slightly greenish yellow stains | almost matched DAB in intensity | colour of stain of compound alone (HRP [4]): unpleasing greenish yellow
CC/N=c1\cc2oc3cc(NCC)c(C)cc3c(-c3ccccc3C(=O)OCC(=O)NCCNC(=O)/C=C/c3ccc(O)cc3)c-2cc1C [Compound 13, Rho6G-L6-Cou] | 532 | red stains | matched DAB in intensity and crispness | solubility [3, 5]: 900 µM (≈ 595 µg/mL); solubility [3, 6]: 1800 µM (≈ 1190 µg/mL); solubility [3, 7]: 500 µM (≈ 330 µg/mL); solubility in the substrate buffer relative to Compound 2 [3]: reduced solubility
O=C(/C=C/c1ccc(O)cc1)NCCOCCOCCNC(=O)COC(=O)c1ccccc1-c1c2ccc(=O)cc-2oc2cc(O)ccc12 [Compound 10, Flu-L12-Cou] | 503 |  |  | colour of stain of compound alone (HRP [4]): brownish hue
CCN(CC)c1ccc2c(-c3ccccc3C(=O)OCC(=O)NCCOCCOCCNC(=O)/C=C/c3ccc(O)cc3)c3ccc(=[N+](CC)CC)cc-3oc2c1 [Compound 4, RhodamineB-L12-Cou] | 561 | purple stains | matched DAB in intensity and crispness | 
CC/N=c1\cc2oc3cc(NCC)c(C)cc3c(-c3ccccc3C(=O)OCCN3CCN(CC(=O)NCCOCCOCCNC(=O)/C=C/c4ccc(O)cc4)CC3)c-2cc1C [Compound 14, Rhodamine 6G-Et-Pip-L12-Cou] | 531 | red stains | matched DAB in intensity and crispness | solubility in the substrate buffer relative to Compound 2 [3]: significantly increased solubility
CC/N=c1\cc2oc3cc(NCC)c(C)cc3c(-c3ccccc3C(=O)N3CCN(CC(=O)NCCOCCOCCNC(=O)/C=C/c4ccc(O)cc4)CC3)c-2cc1C [Compound 6, Rhodamine 6G-Pip-L12-Cou] | 536 | slightly purplish red stains | matched DAB in intensity and crispness | solubility in the substrate buffer relative to Compound 2 [3]: significantly increased solubility
O=C(/C=C/c1ccc(O)cc1)NCCOCCOCCNC(=O)COC(=O)c1ccccc1C1=c2cc3c4c(c2Oc2c1cc1c5c2CCCN5CCC1)CCC[N+]=4CCC3 [Compound 5, Rhodamine101-L12-Cou] | 584 |  |  | 
